Data: ChEMBL document CHEMBL1862790, “Optimisation of fenarimol series for the treatment of Chagas disease”

Tests used:
Trypanosoma cruzi [1] = assay: microbe, parasite or virus in culture; type: functional, organism-based, Tulahuen LacZ, Clone C4; settings: Trypanosoma cruzi, Tulahuen LacZ, Clone C4
[2] = DNDI: Cytotoxicity against L-6 rat myoblasts from skeletal muscle cells; settings: L6 rat skeletal muscle myoblast cells
Trypanosoma cruzi [3] = assay: microbe, parasite or virus in culture; type: functional, Tulahuen LacZ, Clone C4; settings: Trypanosoma cruzi, Tulahuen LacZ, Clone C4

IC50 (Trypanosoma cruzi [1]) | IC90 (Trypanosoma cruzi [3]) | Compound | IC50 ([2]; IC50) | IC50 [2]
230 nM | 600 nM | CC(C)(C)NC(=O)N1CCN(C(c2ccc(Cl)cc2)c2cncnc2)CC1 (stereo unspecified) | > 100000 nM | –
60 nM | 110 nM | O=S(=O)(c1ccc(Cl)cc1)N1CCN(C(c2cncnc2)c2ccc(Cl)cc2F)CC1 (stereo unspecified) | > 100000 nM | –
120 nM | 300 nM | CN(C)C(=O)N1CCN(C(c2ccc(Cl)cc2)c2cccnc2)CC1 (stereo unspecified) | > 100000 nM | –
830 nM | 2720 nM | CCNC(=O)N1CCN(C(c2ccc(Cl)cc2)c2cncnc2)CC1 (stereo unspecified) | > 100000 nM | –
55 nM | 180 nM | O=S(=O)(c1ccc(C(F)(F)F)cc1)N1CCN(C(c2ccc(Cl)cc2)c2cccnc2)CC1 (stereo unspecified) | 51400 nM | –
18 nM | 38 nM | O=S(=O)(C1CCCCC1)N1CCN(C(c2cncnc2)c2ccc(Cl)cc2F)CC1 (stereo unspecified) | 61300 nM | –
190 nM | 360 nM | CCOC(=O)N1CCN(C(c2ccc(Cl)cc2)c2cncnc2)CC1 (stereo unspecified) | > 100000 nM | –
72 nM | 180 nM | O=S(=O)(Cc1ccccc1)N1CCN(C(c2cncnc2)c2ccc(Cl)cc2F)CC1 (stereo unspecified) | 62400 nM | –
18 nM | 36 nM | CC(C)c1ccc(S(=O)(=O)N2CCN(C(c3cncnc3)c3ccc(Cl)cc3F)CC2)cc1 (stereo unspecified) | > 100000 nM | –
240 nM | 620 nM | CC(C)(C)CC(=O)N1CCN(C(c2ccc(Cl)cc2)c2cncnc2)CC1 (stereo unspecified) | > 100000 nM | –
60 nM | 230 nM | CC(C)(C)NC(=O)N1CCC(NC(c2ccc(Cl)cc2)c2cccnc2)CC1 (stereo unspecified) | > 100000 nM | –
220 nM | 580 nM | O=C(c1ccccc1)N1CCN(C(c2cncnc2)c2ccc(Cl)cc2F)CC1 (stereo unspecified) | > 100000 nM | –
480 nM | 940 nM | CN(C)C(=O)N1CCN(C(c2cncnc2)c2ccc(Cl)cc2F)CC1 (stereo unspecified) | > 100000 nM | –
28 nM | 88 nM | CC(C)S(=O)(=O)N1CCN(C(c2ccc(Cl)cc2)c2cccnc2)CC1 (stereo unspecified) | > 100000 nM | –
620 nM | > 1000 nM | CN(C)C(=O)N1CCN(C(c2ccc(Cl)cc2)c2cncnc2)CC1 (stereo unspecified) | > 100000 nM | –
32 nM | 140 nM | O=S(=O)(Cc1ccccc1)N1CCN(C(c2ccc(Cl)cc2)c2cccnc2)CC1 (stereo unspecified) | 57700 nM | –
150 nM | 300 nM | O=C(C1CCCCC1)N1CCN(C(c2cncnc2)c2ccc(Cl)cc2F)CC1 (stereo unspecified) | > 100000 nM | –
62 nM | 200 nM | CC(C)CS(=O)(=O)N1CCN(C(c2ccc(Cl)cc2)c2cncnc2)CC1 (stereo unspecified) | 92700 nM | –
58 nM | 120 nM | CCOC(=O)N1CCN(C(c2ccc(Cl)cc2)c2cccnc2)CC1 (stereo unspecified) | 83200 nM | –
11 nM | 36 nM | CC(C)c1ccc(NC(=O)N2CCN(C(c3ccc(Cl)cc3)c3cncnc3)CC2)cc1 (stereo unspecified) | 36000 nM | –
440 nM | 860 nM | CCC(=O)N1CCN(C(c2cncnc2)c2ccc(Cl)cc2F)CC1 (stereo unspecified) | > 100000 nM | –
76 nM | 220 nM | O=S(=O)(c1ccc(C(F)(F)F)cc1)N1CCN(C(c2cncnc2)c2ccc(Cl)cc2F)CC1 (stereo unspecified) | 74700 nM | –
120 nM | 310 nM | O=C(Nc1ccccc1)N1CCN(C(c2ccc(Cl)cc2)c2cncnc2)CC1 (stereo unspecified) | 83700 nM | –
34 nM | 99 nM | O=C(OCc1ccccc1)N1CCN(C(c2ccc(Cl)cc2)c2cccnc2)CC1 (stereo unspecified) | 51600 nM | –
120 nM | 330 nM | CC(C)S(=O)(=O)N1CCN(C(c2cncnc2)c2ccc(Cl)cc2F)CC1 (stereo unspecified) | > 100000 nM | –

More lines, now with the values behind:

Compound | IC50 (Trypanosoma cruzi [1]) | IC90 (Trypanosoma cruzi [3]) | IC50 ([2]; IC50) | IC50 [2]
O=S(=O)(C1CCCCC1)N1CCC(NC(c2cnccn2)c2ccc(F)cc2F)CC1 (stereo unspecified) | 420 nM | 920 nM | > 100000 nM | –
O=C(c1ccc(C(F)(F)F)cc1)N1CCC(NC(c2cnccn2)c2ccc(F)cc2F)CC1 (stereo unspecified) | 290 nM | 830 nM | > 100000 nM | –
O=C(NC1CCN(C(c2ccc(C(F)(F)F)cc2)c2cnccn2)CC1)c1ccc(C(F)(F)F)cc1 (stereo unspecified) | 100 nM | 300 nM | 57400 nM | –
O=C(c1ccc(C(F)(F)F)cc1)N1CCC(NC(c2ccc(C(F)(F)F)cc2)c2cnccn2)CC1 (stereo unspecified) | 82 nM | 270 nM | 39900 nM | –
CS(=O)(=O)N1CCC(NC(c2cnccn2)c2ccc(F)cc2F)CC1 (stereo unspecified) | 680 nM | > 1000 nM | > 100000 nM | –
O=S(=O)(c1ccc(C(F)(F)F)cc1)N1CCC(NC(c2cnccn2)c2ccc(F)cc2F)CC1 (stereo unspecified) | 360 nM | 820 nM | 62700 nM | –
O=S(=O)(c1ccc(C(F)(F)F)cc1)N1CCC(NC(c2ccc(C(F)(F)F)cc2)c2cnccn2)CC1 (stereo unspecified) | 130 nM | 290 nM | 40900 nM | –
CC(C)CS(=O)(=O)N1CCC(NC(c2cnccn2)c2ccc(F)cc2F)CC1 (stereo unspecified) | 560 nM | 960 nM | > 100000 nM | –
O=C(Nc1ccccc1)N1CCC(NC(c2ccc(Cl)cc2)c2cccnc2)CC1 (stereo unspecified) | 78 nM | 250 nM | 63700 nM | –
CC(C)c1ccc(S(=O)(=O)N2CCC(NC(c3cnccn3)c3ccc(F)cc3F)CC2)cc1 (stereo unspecified) | 210 nM | 550 nM | 21800 nM | –
CCS(=O)(=O)N1CCC(NC(c2cnccn2)c2ccc(F)cc2F)CC1 (stereo unspecified) | 620 nM | > 1000 nM | > 100000 nM | –
CC(C)C(=O)N1CCC(NC(c2cnccn2)c2ccc(F)cc2F)CC1 (stereo unspecified) | 850 nM | > 1000 nM | > 100000 nM | –
O=S(=O)(c1ccc(Cl)cc1)N1CCC(NC(c2cnccn2)c2ccc(F)cc2F)CC1 (stereo unspecified) | 530 nM | 900 nM | 77900 nM | –
O=C(Cc1ccccc1)N1CCN(C(c2ccc(Cl)cc2)c2cncnc2)CC1 (stereo unspecified) | 500 nM | 850 nM | – | 69500 nM
O=C(NCC1CCCCC1)c1cccc(C(O)(c2ccc(Cl)cc2)c2cccnc2)c1 (stereo unspecified) | 100 nM | 280 nM | > 100000 nM | –
O=C(Nc1ccc(Cl)cc1)N1CCC(NC(c2ccc(Cl)cc2)c2cccnc2)CC1 (stereo unspecified) | 25 nM | 86 nM | 43400 nM | –
CC(C)S(=O)(=O)N1CCC(NC(c2cnccn2)c2ccc(F)cc2F)CC1 (stereo unspecified) | 340 nM | 790 nM | > 100000 nM | –
O=C(C1CC1)N1CCC(NC(c2cnccn2)c2ccc(F)cc2F)CC1 (stereo unspecified) | 1380 nM | 3860 nM | > 100000 nM | –
CCS(=O)(=O)N1CCC(NC(c2ccc(C(F)(F)F)cc2)c2cnccn2)CC1 (stereo unspecified) | 490 nM | 880 nM | > 100000 nM | –
CN(C)C(=O)N1CCC(NC(c2ccc(Cl)cc2)c2cccnc2)CC1 (stereo unspecified) | 170 nM | 340 nM | > 100000 nM | –
CC(C)C(=O)N1CCC(NC(c2ccc(C(F)(F)F)cc2)c2cnccn2)CC1 (stereo unspecified) | 230 nM | 490 nM | > 100000 nM | –

Compound | IC50 (Trypanosoma cruzi [1]) | IC90 (Trypanosoma cruzi [3]) | IC50 ([2]; IC50) | IC50 [2]
CC(C)c1ccc(NC(=O)N2CCC(NC(c3ccc(Cl)cc3)c3cccnc3)CC2)cc1 (stereo unspecified) | 5 nM | 15 nM | 19700 nM | –
CC(C)S(=O)(=O)NC1CCN(C(c2ccc(C(F)(F)F)cc2)c2cnccn2)CC1 (stereo unspecified) | 560 nM | 940 nM | > 100000 nM | –
CN(C)C(=O)N1CCC(NC(c2cnccn2)c2ccc(F)cc2F)CC1 (stereo unspecified) | > 1000 nM | > 1000 nM | > 100000 nM | –
O=C(Cc1ccccc1)N1CCC(NC(c2cnccn2)c2ccc(F)cc2F)CC1 (stereo unspecified) | 360 nM | 820 nM | > 100000 nM | –
CCC(=O)N1CCC(NC(c2ccc(C(F)(F)F)cc2)c2cnccn2)CC1 (stereo unspecified) | > 1000 nM | > 1000 nM | > 100000 nM | –
CN(C)C(=O)N1CCC(NC(c2ccc(C(F)(F)F)cc2)c2cnccn2)CC1 (stereo unspecified) | 500 nM | 920 nM | > 100000 nM | –
O=C(NC1CCN(C(c2ccc(C(F)(F)F)cc2)c2cnccn2)CC1)c1ccc(Cl)cc1 (stereo unspecified) | 78 nM | 230 nM | 52900 nM | –
O=S(=O)(c1ccccc1)N1CCC(NC(c2cnccn2)c2ccc(F)cc2F)CC1 (stereo unspecified) | 400 nM | 880 nM | 72200 nM | –
CCC(=O)N1CCC(NC(c2cnccn2)c2ccc(F)cc2F)CC1 (stereo unspecified) | > 1000 nM | > 1000 nM | > 100000 nM | –
O=C(Cc1ccccc1)NC1CCN(C(c2ccc(C(F)(F)F)cc2)c2cnccn2)CC1 (stereo unspecified) | 190 nM | 370 nM | > 100000 nM | –
CC(C)CC(=O)N1CCC(NC(c2cnccn2)c2ccc(F)cc2F)CC1 (stereo unspecified) | 550 nM | > 1000 nM | > 100000 nM | –
CCOC(=O)N1CCC(NC(c2ccc(Cl)cc2)c2cccnc2)CC1 (stereo unspecified) | 70 nM | 190 nM | > 100000 nM | –
O=S(=O)(NC1CCN(C(c2ccc(C(F)(F)F)cc2)c2cnccn2)CC1)C1CCCCC1 (stereo unspecified) | 280 nM | 780 nM | 57900 nM | –
O=S(=O)(Cc1ccccc1)N1CCC(NC(c2cnccn2)c2ccc(F)cc2F)CC1 (stereo unspecified) | 190 nM | 400 nM | > 100000 nM | –
O=C(c1ccccc1)N1CCC(NC(c2cnccn2)c2ccc(F)cc2F)CC1 (stereo unspecified) | 680 nM | > 1000 nM | > 100000 nM | –
O=C(C1CCCCC1)N1CCC(NC(c2cnccn2)c2ccc(F)cc2F)CC1 (stereo unspecified) | 570 nM | 990 nM | > 100000 nM | –
O=C(c1ccc(Cl)cc1)N1CCC(NC(c2cnccn2)c2ccc(F)cc2F)CC1 (stereo unspecified) | 260 nM | 700 nM | > 100000 nM | –
CC(C)CC(=O)NC1CCN(C(c2ccc(C(F)(F)F)cc2)c2cnccn2)CC1 (stereo unspecified) | 280 nM | 700 nM | > 100000 nM | –
CC(C)c1ccc(S(=O)(=O)N2CCC(NC(c3ccc(C(F)(F)F)cc3)c3cnccn3)CC2)cc1 (stereo unspecified) | 100 nM | 270 nM | 22000 nM | –
CC(C)S(=O)(=O)N1CCC(NC(c2ccc(C(F)(F)F)cc2)c2cnccn2)CC1 (stereo unspecified) | 220 nM | 570 nM | > 100000 nM | –
CC(C)C(=O)NC1CCN(C(c2ccc(C(F)(F)F)cc2)c2cnccn2)CC1 (stereo unspecified) | 560 nM | 940 nM | > 100000 nM | –
